Measured values from patent US10590113B2, “6-hydroxy-4-oxo-1,4-dihydropyrimidine-5-carboxamides as APJ agonists” (priority 2016, dated 2020).

What follows are compounds tested against T1, human APJ receptor (Homo sapiens, UniProt P35414) (assay: Intracellular cAMP Accumulation Assay (APJ hcAMP, HTRF)). Details: not given.
T1 construct: expressed in transfected cells; host or cells: HEK293
T1 sequence (P35414 1-380): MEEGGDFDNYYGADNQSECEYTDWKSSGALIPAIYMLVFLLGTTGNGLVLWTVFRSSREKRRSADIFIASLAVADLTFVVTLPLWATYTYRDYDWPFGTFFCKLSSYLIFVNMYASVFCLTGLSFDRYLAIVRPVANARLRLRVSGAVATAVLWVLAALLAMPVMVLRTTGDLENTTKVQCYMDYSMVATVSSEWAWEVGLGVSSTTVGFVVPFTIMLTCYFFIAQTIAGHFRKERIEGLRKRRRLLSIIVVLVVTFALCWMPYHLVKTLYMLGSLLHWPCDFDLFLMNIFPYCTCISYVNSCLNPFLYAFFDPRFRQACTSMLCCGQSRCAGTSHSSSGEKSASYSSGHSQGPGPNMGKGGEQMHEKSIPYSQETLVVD
Type: cell-based
Protocol: Intracellular cAMP Accumulation Assay
HEK293 cells stably expressing human APJ receptor were used to assess the activity of compounds. Cultured cells were detached and resuspended in the cAMP
Homogeneous Time-Resolved Fluorescence (HTRF) assay buffer (Cisbio cat; #62AM4PEJ). The assay was performed in 384-well assay plates (Perkin-Elmer; cat #6008289) according to assay protocol provided by the manufacturer. Serial dilutions of a compound together with assay buffer containing […] IBMX and 2 μM forskolin were added to each well containing 5,000 cells and incubated for 30 minutes at room temperature. Subsequently, cAMP D2 reagent was added in the lysis buffer followed by the EuK antibody (Cisbio; cat #62AM4PEJ) and incubated for 60 min. The fluorescence emission ratio was measured using fluorometer. The intracellular cAMP concentrations (compound-stimulated inhibition of forskolin-mediated cAMP production) were calculated by extrapolation from a standard curve using known cAMP concentrations. The EC50 values were obtained by fitting the data to a sigmoidal concentration-response curve with variable slope.
The EC50 value of each compound is presented at the end of the example description.
The biological activity of the exemplified compounds of this invention determined by the assay described above is shown at the end of each example.
`CCCCc1nc(=O)c(C(=O)N2CCC(c3ccccn3)C2)c(O)n1-c1c(OC)cccc1OC` (single isomer, unassigned) [Example 68, 2-butyl-1-(2,6-dimethoxyphenyl)-6-hydroxy-5-[3-(pyridin-2-yl)pyrrolidine-1-carbonyl]-1,4-dihydropyrimidin-4-one] was tested, and the EC50 was 0.01 to 10 nM.
For `CCCCc1nc(=O)c(C(=O)N2CCC(c3cccnc3)C2)c(O)n1-c1c(OC)cccc1OC` (single isomer, unassigned) [Example 75, 2-butyl-1-(2,6-dimethoxyphenyl)-6-hydroxy-5-[3-(pyridin-3-yl)pyrrolidine-1-carbonyl]-1,4-dihydropyrimidin-4-one], the EC50 was 0.01 to 10 nM.

Same assay, conditions: human APJ, intracellular cAMP accumulation; read-out: hAPJ cAMP EC50 Potency range
Work on `CCOCc1nc(=O)c(C(=O)N2CCC(c3ccc(F)cc3)C2)c(O)n1-c1c(OC)cccc1OC` (single isomer, unassigned) [Example 57, 1-(2,6-dimethoxyphenyl)-2-(ethoxymethyl)-5-[3-(4-fluorophenyl)pyrrolidine-1-carbonyl]-6-hydroxy-1,4-dihydropyrimidin-4-one] yielded an EC50 of 0.01 to 10 nM.
Work on `CCCCc1nc(=O)c(C(=O)N2CCC(c3ccc(F)cc3)C2)c(O)n1-c1c(OC)cccc1OC` (single isomer, unassigned) [Example 77, 2-butyl-1-(2,6-dimethoxyphenyl)-5-[3-(4-fluorophenyl)pyrrolidine-1-carbonyl]-6-hydroxy-1,4-dihydropyrimidin-4-one] yielded an EC50 of 0.01 to 10 nM.
With `CCCCc1nc(=O)c(C(=O)N2CCC(c3cccc(F)c3)C2)c(O)n1-c1c(OC)cccc1OC` (single isomer, unassigned) [Example 78, 2-butyl-1-(2,6-dimethoxyphenyl)-5-[3-(3-fluorophenyl)pyrrolidine-1-carbonyl]-6-hydroxy-1,4-dihydropyrimidin-4-one] the EC50 was 0.01 to 10 nM.
Work on `CCCCc1nc(=O)c(C(=O)N2CCC(c3ccc(F)cc3)C2)c(O)n1-c1c(OC)cccc1OC` (single isomer, unassigned) [Example 79, 2-butyl-1-(2,6-dimethoxyphenyl)-5-[3-(4-fluorophenyl)pyrrolidine-1-carbonyl]-6-hydroxy-1,4-dihydropyrimidin-4-one] yielded an EC50 of 0.01 to 10 nM.
Compound `CCCCc1nc(=O)c(C(=O)N2CCC(c3cccc(F)c3)C2)c(O)n1-c1c(OC)cccc1OC` (single isomer, unassigned) [Example 80, 2-butyl-1-(2,6-dimethoxyphenyl)-5-[3-(3-fluorophenyl)pyrrolidine-1-carbonyl]-6-hydroxy-1,4-dihydropyrimidin-4-one] has an EC50 of 0.01 to 10 nM.
`CCOCc1nc(=O)c(C(=O)N2CCC(c3ccc(F)cc3)C2)c(O)n1-c1c(OC)cccc1OC` (single isomer, unassigned) [Example 81, 1-(2,6-dimethoxyphenyl)-2-(ethoxymethyl)-5-[3-(4-fluorophenyl)pyrrolidine-1-carbonyl]-6-hydroxy-1,4-dihydropyrimidin-4-one] showed an EC50 of 0.01 to 10 nM.
`CCOCc1nc(=O)c(C(=O)N2CCC(c3cccnc3)C2)c(O)n1-c1c(OC)cccc1OC` (single isomer, unassigned) [Example 82, 1-(2,6-dimethoxyphenyl)-2-(ethoxymethyl)-6-hydroxy-5-[3-(pyridin-3-yl)pyrrolidine-1-carbonyl]-1,4-dihydropyrimidin-4-one] showed an EC50 of 0.01 to 10 nM.
In the case of `CCOCc1nc(=O)c(C(=O)N2CCC(c3cccc(F)c3)C2)c(O)n1-c1c(OC)cccc1OC` (single isomer, unassigned) [Example 83, 1-(2,6-dimethoxyphenyl)-2-(ethoxymethyl)-5-[3-(3-fluorophenyl)pyrrolidine-1-carbonyl]-6-hydroxy-1,4-dihydropyrimidin-4-one], the EC50 is reported as 0.01 to 10 nM.
For `CCOCc1nc(=O)c(C(=O)N2CCC(c3cccc(F)c3)C2)c(O)n1-c1c(OC)cccc1OC` (single isomer, unassigned) [Example 84, 1-(2,6-dimethoxyphenyl)-2-(ethoxymethyl)-5-[3-(3-fluorophenyl)pyrrolidine-1-carbonyl]-6-hydroxy-1,4-dihydropyrimidin-4-one], the EC50 was 0.01 to 10 nM.
With `CCOCc1nc(=O)c(C(=O)N2CCC(c3cccnc3)C2)c(O)n1-c1c(OC)cccc1OC` (single isomer, unassigned) [Example 85, 1-(2,6-dimethoxyphenyl)-2-(ethoxymethyl)-6-hydroxy-5-[3-(pyridin-3-yl)pyrrolidine-1-carbonyl]-1,4-dihydropyrimidin-4-one] the EC50 was 0.01 to 10 nM.
Compound `COc1cccc(OC)c1-n1c(COC(C)C)nc(=O)c(C(=O)N2CCC(c3ccccc3Cl)C2)c1O` (single isomer, unassigned) [Example 92, 5-[3-(2-chlorophenyl)pyrrolidine-1-carbonyl]-1-(2,6-dimethoxyphenyl)-6-hydroxy-2-[(propan-2-yloxy)methyl]-1,4-dihydropyrimidin-4-one] has an EC50 of 0.01 to 10 nM.
Compound `COc1cccc(OC)c1-n1c(COC(C)C)nc(=O)c(C(=O)N2CCC(c3ccccc3F)C2)c1O` (single isomer, unassigned) [Example 93, 1-(2,6-dimethoxyphenyl)-5-[3-(2-fluorophenyl)pyrrolidine-1-carbonyl]-6-hydroxy-2-[(propan-2-yloxy)methyl]-1,4-dihydropyrimidin-4-one] has an EC50 of 0.01 to 10 nM.
For `COc1cccc(OC)c1-n1c(COC(C)C)nc(=O)c(C(=O)N2CCC(c3ccc(F)cc3)C2)c1O` (single isomer, unassigned) [Example 94, 1-(2,6-dimethoxyphenyl)-5-[3-(4-fluorophenyl)pyrrolidine-1-carbonyl]-6-hydroxy-2-[(propan-2-yloxy)methyl]-1,4-dihydropyrimidin-4-one], the EC50 was 0.01 to 10 nM.
`COc1cccc(OC)c1-n1c(COC(C)C)nc(=O)c(C(=O)N2CCC(c3cccc(F)c3)C2)c1O` (single isomer, unassigned) [Example 95, 1-(2,6-dimethoxyphenyl)-5-[3-(3-fluorophenyl)pyrrolidine-1-carbonyl]-6-hydroxy-2-[(propan-2-yloxy)methyl]-1,4-dihydropyrimidin-4-one] gave an EC50 of 0.01 to 10 nM.
`COc1cccc(OC)c1-n1c(COC(C)C)nc(=O)c(C(=O)N2CCC(c3cccc(F)c3)C2)c1O` (single isomer, unassigned) [Example 97, 1-(2,6-dimethoxyphenyl)-5-[3-(3-fluorophenyl)pyrrolidine-1-carbonyl]-6-hydroxy-2-[(propan-2-yloxy)methyl]-1,4-dihydropyrimidin-4-one] was tested, and the EC50 was 0.01 to 10 nM.
Work on `COc1cccc(OC)c1-n1c(COC(C)C)nc(=O)c(C(=O)N2CCC(c3ccccc3C)C2)c1O` (single isomer, unassigned) [Example 98, 1-(2,6-dimethoxyphenyl)-6-hydroxy-5-[3-(2-methylphenyl)pyrrolidine-1-carbonyl]-2-[(propan-2-yloxy)methyl]-1,4-dihydropyrimidin-4-one] yielded an EC50 of 0.01 to 10 nM.
Work on `COc1cccc(OC)c1-n1c(COC(C)C)nc(=O)c(C(=O)N2CCC(c3ccccc3C(F)(F)F)C2)c1O` (single isomer, unassigned) [Example 99, 1-(2,6-dimethoxyphenyl)-6-hydroxy-2-[(propan-2-yloxy)methyl]-5-{3-[2-(trifluoromethyl)phenyl]pyrrolidine-l-carbonyl}-1,4-dihydropyrimidin-4-one] yielded an EC50 of 0.01 to 10 nM.
In the case of `COc1cccc(OC)c1-n1c(COC2CC2)nc(=O)c(C(=O)N2CCC(c3ccc(F)cc3)C2)c1O` (single isomer, unassigned) [Example 100, 2-(cyclopropoxymethyl)-1-(2,6-dimethoxyphenyl)-5-[3-(4-fluorophenyl)pyrrolidine-1-carbonyl]-6-hydroxy-1,4-dihydropyrimidin-4-one], the EC50 is reported as 0.01 to 10 nM.
Compound `COc1cccc(OC)c1-n1c(COC(C)C)nc(=O)c(C(=O)N2CCC(c3ccccc3C(F)(F)F)C2)c1O` (single isomer, unassigned) [Example 101, 1-(2,6-dimethoxyphenyl)-6-hydroxy-2-[(propan-2-yloxy)methyl]-5-{3-[2-(trifluoromethyl)phenyl]pyrrolidine-1-carbonyl}-1,4-dihydropyrimidin-4-one] has an EC50 of 0.01 to 10 nM.

Same assay, conditions: read-out: hAPJ cAMP EC50 Potency range; human APJ, intracellular cAMP accumulation
`CCCCc1nc(=O)c(C(=O)N2CCC(c3ccccn3)C2)c(O)n1-c1c(OC)cccc1OC` (single isomer, unassigned) [Example 70, 2-butyl-1-(2,6-dimethoxyphenyl)-6-hydroxy-5-[3-(pyridin-2-yl)pyrrolidine-1-carbonyl]-1,4-dihydropyrimidin-4-one] showed an EC50 of 0.01 to 10 nM.
Work on `CCCCc1nc(=O)c(C(=O)N2CCC(c3cccnc3)C2)c(O)n1-c1c(OC)cccc1OC` (single isomer, unassigned) [Example 76, 2-butyl-1-(2,6-dimethoxyphenyl)-6-hydroxy-5-[3-(pyridin-3-yl)pyrrolidine-1-carbonyl]-1,4-dihydropyrimidin-4-one] yielded an EC50 of 0.01 to 10 nM.
